# According to patent EP4755877A1, “MODIFIED FLAVONE COMPOUNDS AND USE THEREOF” (Suzhou Glenkol Pharma Technology Co., Ltd., priority 2023, dated 2025):
# Where two headings read alike, the source gives them in different places.
# How the values were obtained:
# PC-12 cells = assay: Glutamate-induced excitotoxic death of PC-12 cells, survival by propidium iodide/Hoechst staining; format: cell-based, rat; conditions: for Enhancement of Cell Survival Rate: PC-12 cells, glutamate-induced death, compound at 100 nM; for EC50: Rattus norvegicus, promotion of PC-12 survival under glutamate stimulation, 30 min pretreatment, 1 pM-100 µM, 24 h glutamate
# Description: PC-12 cells (a […] cell line derived from rat adrenal medulla) were cultured in DMEM/F12 complete medium until 80-90% confluency. After being digested, collected, and resuspended, the cells were seeded into 24-well plates pre-coated with coverslips at a density of 5×10^4 cells per well. Following 26 hours of cell culture, glutamate-induced excitotoxic cell death modeling was performed. The modeling method was as follows: an appropriate amount of glutamate was weighed and dissolved in DMEM/F12 medium to prepare a stock solution; after filtration, the stock solution was diluted with the same medium, and the cells were administered with the diluted solution by medium replacement. After administration, the cells were further incubated for 24 hours.
# Prior to glutamate modeling, cells incubated in the previous step were pretreated with small-molecule compounds listed in Table 1 at concentrations of 1 pM, 10 pM, 100 pM, 1 nM, 10 nM, 100 nM, 1 µM, 10 µM, and 100 µM for 30 minutes, followed by glutamate stimulation.
# The cells treated with the compounds were stained with propidium iodide to assess cell death. After the medium was discarded, the cells were washed with PBS. Subsequently, propidium iodide/Hoechst was added. Following incubation for 30 minutes, the staining solution was removed, and the cells were washed with PBS again before being fixed and mounted on slides. Image acquisition was performed under a fluorescence microscope. The propidium iodide-positive cells and Hoechst-positive cells in the collected images were counted to calculate the cell survival rate. The survival rate was calculated using the formula: Cell survival rate = (1 - Number of Propidium Iodide-positive cells / Number of Hoechst-positive cells) × 100%. The gradient concentrations of the small molecule compounds and the corresponding normalized survival rates were imported into Prism software, and EC50 values were calculated using a non-linear regression model. 7,8-dihydroxyflavone was used as the positive control drug. Table 1: Dose-response relationship study of various compounds in promoting PC-12 neurocytes survival
# Based on the aforementioned dose-response relationship study of the compounds, the inhibitory effects of different small molecule compounds on glutamate-induced excitotoxic death of PC-12 cells were further compared at the same dose (100 nM). Table 2: Study on the promoting effects of various compounds on PC-12 neurocytes survival
# [1] = Pharmacokinetics in rats after intravenous and oral gavage dosing, plasma LC-MS/MS; format: in vivo; conditions: rat
# Description: Preparation of intravenous bolus administration formulations: A graduation line for the final volume was marked on a clean and dry container. An appropriate amount of the test sample was weighed and added to the container to prepare a solution with a final concentration of 1 mg/mL.
# Preparation of oral gavage administration formulations: A graduation line for the final volume was marked on a clean and dry container. An appropriate amount of the test sample was weighed and added to the container to prepare a solution with a final concentration of 3 mg/mL.
# After preparation, the formulations were stored at room temperature and used on the day of preparation. A total of 2 groups of rats were set up, with […] per group (half male and half female). The compounds were administered to the rats at a dose of 1 mg/kg via intravenous injection and 15 mg/kg via oral gavage, respectively. All animals were allowed free access to food and water.
# Intravenous administration: Before administration (0 h) and at 0.083, 0.167, 0.5, 1.0, 2.0, 4.0, 6.0, and 24 h after administration, 0.2 mL of blood samples were collected from the jugular vein and transferred to anticoagulant tubes (pre-cooled in advance for at least 5 minutes). The tubes were gently inverted several times to fully mix the blood with the anticoagulant. The blood samples were centrifuged at 4 °C for 10 minutes to separate the plasma. 95 µ L of plasma was collected and transferred to a centrifuge tube, which was stored in a refrigerator at below -80 °C until analysis.
# Single oral gavage administration: Before administration (0 h) and at 0.167, 0.5, 1.0, 2.0, 4.0, 6.0, and 24 h after administration, 0.2 mL of blood samples were collected from the jugular vein and transferred to anticoagulant tubes. The sample processing method was the same as described above.
# The concentration of the compounds in plasma was determined by LC-MS/MS, and data acquisition was performed using Analyst 1.6.3 software (AB Sciex). The pharmacokinetic parameters of the rats after administration were calculated using the non-compartmental model in Phoenix WinNonlin software.
# 7,8-dihydroxyflavone served as the control drug for comparing the pharmacokinetic characteristics of various compound. Table 3: PK parameters of various compound
# [2] = both sexes, Sprague-Dawley, SD rats, plasma, 15 mg/kg oral gavage / 1 mg/kg intravenous, table does not state the route
# [3] = in vivo, SD rats, plasma, 15 mg/kg oral gavage / 1 mg/kg intravenous, table does not state the route
# [4] = in vivo, SD rats, 15 mg/kg oral gavage vs 1 mg/kg intravenous, read-out: Oral Bioavailability F (%)
# [5] = in vivo, SD rats, plasma, 15 mg/kg oral gavage / 1 mg/kg intravenous, table does not state the route, read-out: t1/2 (converted)
Structure (SMILES),Enhancement of Cell Survival Rate (PC-12 cells) [%],EC50 (PC-12 cells) [nM],"AUC(0-t) [1, 3] [µM·h]","Cmax [1, 3] [nM]","bioavailability [1, 4] [%]","half-life [1, 5] [h]",also measured
"O=c1cc(-c2ccccc2)oc2c(O)c(O)ccc12 [7,8-dihydroxyflavone, 7,8-dihydroxyflavone, reference compound]",33.58,0.159,–,–,–,–,"bioavailability ([1]; both sexes, Sprague-Dawley, plasma, SD rats, 15 mg/kg oral gavage vs 1 mg/kg intravenous, read-out: Oral Bioavailability F (%)): 1.9%; AUC(0-t) [1, 2]: 0.1 µM·h; Cmax [1, 2]: 75.1 nM; half-life ([1]; both sexes, Sprague-Dawley, SD rats, plasma, 15 mg/kg oral gavage / 1 mg/kg intravenous, table does not state the route, read-out: t1/2 (converted)): 3.32 h"
O=c1cc(-c2ccccc2)oc2c(F)c(O)ccc12 [Compound S1],–,0.012,0.181,94.9,–,–,–
O=C(O)[C@H]1O[C@@H](Oc2c(O)ccc3c(=O)cc(-c4ccccc4)oc23)[C@H](O)[C@@H](O)[C@@H]1O [Compound S7],–,0.0111,2.36,245,66.9,–,–
O=c1cc(C2CCNCC2)oc2c(O)c(O)ccc12 [Compound S12],–,< 0.001,0.151,113,1.9,1.84,–
[2H]c1c([2H])c([2H])c(-c2cc(=O)c3ccc(O[C@@H]4O[C@H](C(=O)O)[C@@H](O)[C@H](O)[C@H]4O)c(O)c3o2)c([2H])c1[2H] [Compound S25],–,–,–,3590,52,5.38,–
O=c1cc(C2CCNCC2)oc2c(F)c(O)ccc12 [Compound S26],–,–,0.252,68.1,–,4.54,–
O=c1cc(C2CCNCC2)oc2c(O[C@@H]3OC[C@@H](O)[C@H](O)[C@H]3O)c(O)ccc12 [Compound S27],–,–,–,–,–,–,half-life ([1]; in vivo): 1.77 h
O=c1cc(C2CCNCC2)oc2c(O[C@@H]3O[C@H](CO)[C@@H](O)[C@H](O)[C@H]3O)c(O)ccc12 [Compound S28],43.06,–,–,–,–,–,"half-life ([1]; in vivo): 16.7 h; bioavailability ([1]; in vivo, po, 15 mg/kg): 2.72%"
COc1ccc2c(=O)cc(C3CCNCC3)oc2c1O [Compound S29],73.51,–,0.331,91.3,3.38,2.57,–
O=c1cc(C2CCNCC2)oc2c(F)c(F)ccc12 [Compound S30],83.78,–,10.3,1260,112,11.4,–
